Like-named read-outs stand apart in the source and are kept apart here.
Tested on: Direct Seeded Rice and weed species
Assay: Postemergence herbicidal activity in direct seeded rice, visual rating after 20-22 days and probit GR20/GR50/GR80/GR90 (Table 14)
Assay type: in vivo
Details: for pest or weed control at 17.5 g/ha / pest or weed control at 35 g/ha / pest or weed control at 70 g/ha: post-emergence, 504 h, postemergence; for pest or weed control at 17.5 g/ha: 17.5 g ai/ha; for pest or weed control at 35 g/ha: 35 g ai/ha; for pest or weed control at 70 g/ha: 70 g ai/ha
Procedure, shortened: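 Rice and weeds grown in loam–sand soil (pH about 8.1) in greenhouse to 2nd–3rd true leaf, then sprayed postemergence at 187 L/ha in acetone/DMSO with 1.25% (v/v) Agri-dex crop oil. Injury rated visually 0–100 after 20-22 days versus untreated plants; GR20, GR50, GR80, GR90 obtained by probit analysis across dose rates.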

[1] = BRAPP (broadleaf signalgrass, Brachiaria platyphylla), read-out: Visual Growth Reduction (%) 21 Days After Application BRAPP
[2] = CYPDI (small-flower flatsedge, Cyperus difformis), read-out: Visual Growth Reduction (%) 21 Days After Application CYPDI
[3] = CYPES (yellow nutsedge, Cyperus esculentus), read-out: Visual Growth Reduction (%) 21 Days After Application CYPES
[4] = CYPIR (rice flatsedge, Cyperus iria), read-out: Visual Growth Reduction (%) 21 Days After Application CYPIR
[5] = DIGSA (large crabgrass, Digitaria sanguinalis), read-out: Visual Growth Reduction (%) 21 Days After Application DIGSA
[6] = ECHCG (barnyardgrass, Echinochloa crus-galli), read-out: Visual Growth Reduction (%) 21 Days After Application ECHCG
[7] = ECHCO (junglerice, Echinochloa colonum), read-out: Visual Growth Reduction (%) 21 Days After Application ECHCO
[8] = LEFCH (Chinese sprangletop, Leptochloa chinensis), read-out: Visual Growth Reduction (%) 21 Days After Application LEFCH
[9] = ORYSJ (Oryza sativa, rice crop), read-out: Visual Growth Reduction (%) 21 Days After Application ORYSJ
[10] = ORYSK (Oryza sativa, rice crop), read-out: Visual Growth Reduction (%) 21 Days After Application ORYSK
[11] = SCPJU (Japanese bulrush, Schoenoplectus juncoides Roxb.), read-out: Visual Growth Reduction (%) 21 Days After Application SCPJU
[12] = SEBEX (hemp sesbania, Sesbania exaltata), read-out: Visual Growth Reduction (%) 21 Days After Application SEBEX

SMILES: COc1c(N)nc(-c2ccc3c(c2F)OC(F)(F)O3)nc1C(=O)O [Compound 66]
- GR50 BRAPP (BRAPP (Brachiaria platyphylla), probit analysis, dose for 50 percent growth reduction): 2 g ai/ha
- GR80 BRAPP (BRAPP (Brachiaria platyphylla), probit analysis, dose for 80 percent growth reduction): 7 g ai/ha
- GR90 BRAPP (BRAPP (Brachiaria platyphylla), probit analysis, dose for 90 percent growth reduction): 16 g ai/ha
- GR50 CYPDI (CYPDI (Cyperus difformis), probit analysis, dose for 50 percent growth reduction): 0.42 g ai/ha
- GR80 CYPDI (CYPDI (Cyperus difformis), probit analysis, dose for 80 percent growth reduction): 3 g ai/ha
- GR90 CYPDI (CYPDI (Cyperus difformis), probit analysis, dose for 90 percent growth reduction): 6 g ai/ha
- GR50 CYPES (CYPES (Cyperus esculentus), probit analysis, dose for 50 percent growth reduction): 0.0001 g ai/ha
- GR80 CYPES (CYPES (Cyperus esculentus), probit analysis, dose for 80 percent growth reduction): 0.0001 g ai/ha
- GR90 CYPES (CYPES (Cyperus esculentus), probit analysis, dose for 90 percent growth reduction): 0.0001 g ai/ha
- GR50 CYPIR (CYPIR (Cyperus iria), probit analysis, dose for 50 percent growth reduction): 9 g ai/ha
- GR80 CYPIR (CYPIR (Cyperus iria), probit analysis, dose for 80 percent growth reduction): 15 g ai/ha
- GR90 CYPIR (CYPIR (Cyperus iria), probit analysis, dose for 90 percent growth reduction): 19 g ai/ha
- GR50 DIGSA (DIGSA (Digitaria sanguinalis), probit analysis, dose for 50 percent growth reduction): 2 g ai/ha
- GR80 DIGSA (DIGSA (Digitaria sanguinalis), probit analysis, dose for 80 percent growth reduction): 21 g ai/ha
- GR90 DIGSA (DIGSA (Digitaria sanguinalis), probit analysis, dose for 90 percent growth reduction): 77 g ai/ha
- GR50 ECHCG (ECHCG (Echinochloa crus-galli), probit analysis, dose for 50 percent growth reduction): 3 g ai/ha
- GR80 ECHCG (ECHCG (Echinochloa crus-galli), probit analysis, dose for 80 percent growth reduction): 7 g ai/ha
- GR90 ECHCG (ECHCG (Echinochloa crus-galli), probit analysis, dose for 90 percent growth reduction): 12 g ai/ha
- GR50 ECHCO (ECHCO (Echinochloa colonum), probit analysis, dose for 50 percent growth reduction): 2 g ai/ha
- GR80 ECHCO (ECHCO (Echinochloa colonum), probit analysis, dose for 80 percent growth reduction): 6 g ai/ha
- GR90 ECHCO (ECHCO (Echinochloa colonum), probit analysis, dose for 90 percent growth reduction): 11 g ai/ha
- GR50 LEFCH (LEFCH (Leptochloa chinensis), probit analysis, dose for 50 percent growth reduction): 105 g ai/ha
- GR80 LEFCH (LEFCH (Leptochloa chinensis), probit analysis, dose for 80 percent growth reduction): 227 g ai/ha
- GR90 LEFCH (LEFCH (Leptochloa chinensis), probit analysis, dose for 90 percent growth reduction): 339 g ai/ha
- GR20 ORYSJ (ORYSJ (Oryza sativa, rice crop), probit analysis, dose for 20 percent growth reduction): 2 g ai/ha
- GR20 ORYSK (ORYSK (Oryza sativa, rice crop), probit analysis, dose for 20 percent growth reduction): 11 g ai/ha
- GR50 SCPJU (SCPJU (Schoenoplectus juncoides Roxb.), probit analysis, dose for 50 percent growth reduction): 0.0001 g ai/ha
- GR80 SCPJU (SCPJU (Schoenoplectus juncoides Roxb.), probit analysis, dose for 80 percent growth reduction): 0.0001 g ai/ha
- GR90 SCPJU (SCPJU (Schoenoplectus juncoides Roxb.), probit analysis, dose for 90 percent growth reduction): 0.0001 g ai/ha
- GR50 SEBEX (SEBEX (Sesbania exaltata), probit analysis, dose for 50 percent growth reduction): 8 g ai/ha
- GR80 SEBEX (SEBEX (Sesbania exaltata), probit analysis, dose for 80 percent growth reduction): 19 g ai/ha
- GR90 SEBEX (SEBEX (Sesbania exaltata), probit analysis, dose for 90 percent growth reduction): 28 g ai/ha
- pest or weed control at 17.5 g/ha [1]: 85 to 94%
- pest or weed control at 35 g/ha [1]: 95 to 100%
- pest or weed control at 70 g/ha [1]: 95 to 100%
- pest or weed control at 17.5 g/ha [2]: 95 to 100%
- pest or weed control at 35 g/ha [2]: 95 to 100%
- pest or weed control at 70 g/ha [2]: 95 to 100%
- pest or weed control at 17.5 g/ha [3]: 95 to 100%
- pest or weed control at 35 g/ha [3]: 95 to 100%
- pest or weed control at 70 g/ha [3]: 95 to 100%
- pest or weed control at 17.5 g/ha [4]: 95 to 100%
- pest or weed control at 35 g/ha [4]: 95 to 100%
- pest or weed control at 70 g/ha [4]: 95 to 100%
- pest or weed control at 17.5 g/ha [5]: 75 to 84%
- pest or weed control at 35 g/ha [5]: 85 to 94%
- pest or weed control at 70 g/ha [5]: 85 to 94%
- pest or weed control at 17.5 g/ha [6]: 95 to 100%
- pest or weed control at 35 g/ha [6]: 95 to 100%
- pest or weed control at 70 g/ha [6]: 95 to 100%
- pest or weed control at 17.5 g/ha [7]: 95 to 100%
- pest or weed control at 35 g/ha [7]: 95 to 100%
- pest or weed control at 70 g/ha [7]: 95 to 100%
- pest or weed control at 17.5 g/ha [8]: 0 to 29%
- pest or weed control at 35 g/ha [8]: 0 to 29%
- pest or weed control at 70 g/ha [8]: 30 to 44%
- pest or weed control at 17.5 g/ha [9]: 60 to 74%
- pest or weed control at 35 g/ha [9]: 85 to 94%
- pest or weed control at 70 g/ha [9]: 85 to 94%
- pest or weed control at 17.5 g/ha [10]: 30 to 44%
- pest or weed control at 35 g/ha [10]: 60 to 74%
- pest or weed control at 70 g/ha [10]: 85 to 94%
- pest or weed control at 17.5 g/ha [11]: 95 to 100%
- pest or weed control at 35 g/ha [11]: 95 to 100%
- pest or weed control at 70 g/ha [11]: 95 to 100%
- pest or weed control at 17.5 g/ha [12]: 60 to 74%
- pest or weed control at 35 g/ha [12]: 95 to 100%
- pest or weed control at 70 g/ha [12]: 95 to 100%
